Test results taken from the supplement of paper PMC10307832.

Legend:
Experiment in all cases: relative viability (nuclei count vs DMSO), 5 days (fraction); higher = more cells survive
[1] = compound: Nc1ccn([C@@H]2O[C@H](CO)[C@@H](O)C2(F)F)c(=O)n1 [Gemcitabine] + CCNC(=O)c1noc(-c2cc(C(C)C)c(O)cc2O)c1-c1ccc(CN2CCOCC2)cc1 [Luminespib] (partner 0.01 µM)
How it was run: (§1)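 Nuclei were stained with Hoechst during a one-step fixation (final 0.05% Triton X-100, 1% formaldehyde, 1 ug/ml Hoechst) carried out 5 days after dosing, then counted on 4× images. The cells, lung cancer lines in 1536-well plates, had been dosed by pin tool the day after seeding with one drug alone or a fixed anchor-drug dose plus five library-drug doses (not always all listed) in √10 steps. Relative viability is the nuclei count in treated wells divided by that in vehicle wells, and each value is the median of duplicate plates.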

[2] = compound: Nc1ccn([C@@H]2O[C@H](CO)[C@@H](O)C2(F)F)c(=O)n1 [Gemcitabine] + COc1cccc2cc(-c3nc([C@H]4CC[C@H](C(=O)O)CC4)n4ncnc(N)c34)[nH]c12 [OSI-027] (partner 0.5 µM)
How it was run: as §1

[3] = compound: Nc1ccn([C@@H]2O[C@H](CO)[C@@H](O)C2(F)F)c(=O)n1 [Gemcitabine] + CC(=O)c1c(C)c2cnc(Nc3ccc(N4CCNCC4)cn3)nc2n(C2CCCC2)c1=O [Palbociclib] (partner 0.5 µM)
How it was run: as §1

[4] = compound: Nc1ccn([C@@H]2O[C@H](CO)[C@@H](O)C2(F)F)c(=O)n1 [Gemcitabine] + CS(=O)(=O)N1CCN(Cc2cc3nc(-c4cccc5[nH]ncc45)nc(N4CCOCC4)c3s2)CC1 [Pictilisib] (partner 1 µM)
How it was run: as §1

Row | Cell Line | relative viability ([1]; first compound 0.001 µM) | relative viability ([1]; first compound 0.003162 µM) | relative viability ([1]; first compound 0.01 µM) | relative viability ([1]; first compound 0.03162 µM) | relative viability ([1]; first compound 0.1 µM) | relative viability ([2]; first compound 0.001 µM) | relative viability ([2]; first compound 0.003162 µM) | relative viability ([2]; first compound 0.01 µM) | relative viability ([2]; first compound 0.03162 µM) | relative viability ([2]; first compound 0.1 µM) | relative viability ([3]; first compound 0.001 µM) | relative viability ([3]; first compound 0.003162 µM) | relative viability ([3]; first compound 0.01 µM) | relative viability ([3]; first compound 0.03162 µM) | relative viability ([3]; first compound 0.1 µM) | relative viability ([4]; first compound 0.001 µM) | relative viability ([4]; first compound 0.003162 µM) | relative viability ([4]; first compound 0.01 µM) | relative viability ([4]; first compound 0.03162 µM) | relative viability ([4]; first compound 0.1 µM)
1 | NCI-H2009 | 1.08 | 0.751 | 0.325 | 0.179 | 0.126 | 0.566 | 0.303 | 0.167 | 0.133 | 0.111 | 0.216 | 0.203 | 0.193 | 0.132 | 0.0838 | 0.872 | 0.419 | 0.157 | 0.128 | 0.101
2 | BEN | 0.528 | 0.317 | 0.14 | 0.12 | 0.107 | 0.299 | 0.274 | 0.174 | 0.167 | 0.167 | 0.448 | 0.38 | 0.364 | 0.291 | 0.273 | 0.547 | 0.477 | 0.258 | 0.128 | 0.119
3 | PC-14 | 0.155 | 0.135 | 0.132 | 0.08 | 0.109 | 0.595 | 0.156 | 0.0375 | 0.0459 | 0.0298 | 0.547 | 0.2 | 0.0649 | 0.0528 | 0.0391 | 0.684 | 0.435 | 0.139 | 0.036 | 0.0292
4 | SK-MES-1 | 0.748 | 0.328 | 0.166 | 0.239 | 0.153 | 0.367 | 0.195 | 0.142 | 0.122 | 0.127 | 0.257 | 0.274 | 0.229 | 0.223 | 0.225 | 0.333 | 0.254 | 0.164 | 0.136 | 0.149
5 | NCI-H727 | 0.312 | 0.288 | 0.352 | 0.207 | 0.342 | 0.586 | 0.409 | 0.353 | 0.327 | 0.297 | 0.674 | 0.592 | 0.574 | 0.597 | 0.503 | 0.552 | 0.459 | 0.304 | 0.216 | 0.211
6 | NCI-H1355 | 0.724 | 0.62 | 0.24 | 0.22 | 0.213 | 0.362 | 0.28 | 0.159 | 0.178 | 0.173 | 0.403 | 0.365 | 0.251 | 0.168 | 0.146 | 0.409 | 0.343 | 0.202 | 0.127 | 0.124
7 | NCI-H1975 | 0.173 | 0.158 | 0.154 | 0.182 | 0.13 | 0.867 | 0.839 | 0.327 | 0.148 | 0.125 | 0.638 | 0.502 | 0.48 | 0.148 | 0.122 | 0.315 | 0.282 | 0.229 | 0.168 | 0.136
8 | LK-2 | 0.186 | 0.245 | 0.173 | 0.178 | 0.164 | 0.217 | 0.18 | 0.167 | 0.163 | 0.155 | 0.798 | 0.696 | 0.403 | 0.119 | 0.126 | 0.527 |  | 0.419 | 0.271 | 0.288
9 | NCI-H661 | 0.905 | 0.934 | 0.694 | 0.274 | 0.209 | 0.767 | 0.597 | 0.374 | 0.204 | 0.208 | 0.394 | 0.409 | 0.411 | 0.241 | 0.237 | 0.352 | 0.388 | 0.288 | 0.224 | 0.242
10 | HOP-62 | 0.968 | 0.852 | 0.376 | 0.107 | 0.106 | 0.681 | 0.557 | 0.141 | 0.127 | 0.0935 | 0.358 | 0.339 | 0.184 | 0.0959 | 0.0958 | 0.78 | 0.464 | 0.315 | 0.0682 | 0.0859
11 | NCI-H1944 | 0.73 | 0.764 | 0.758 | 0.458 | 0.183 | 0.453 | 0.437 | 0.385 | 0.188 | 0.149 | 0.357 | 0.286 | 0.268 | 0.229 | 0.171 | 0.352 | 0.373 | 0.355 | 0.241 | 0.22
12 | SW 1573 | 0.192 | 0.166 | 0.0849 | 0.154 | 0.112 | 0.512 | 0.381 | 0.0711 | 0.0797 | 0.0431 | 0.432 | 0.308 | 0.131 | 0.0954 | 0.0788 | 0.543 | 0.272 | 0.178 | 0.086 | 0.0746
13 | LU99A | 0.238 | 0.306 | 0.233 | 0.232 | 0.266 | 0.275 | 0.348 | 0.307 | 0.304 | 0.286 | 0.412 | 0.43 | 0.409 | 0.404 | 0.421 | 0.33 | 0.31 | 0.313 | 0.369 | 0.333
14 | NCI-H647 | 0.166 | 0.118 | 0.0907 | 0.0871 | 0.0761 | 0.408 | 0.128 | 0.0727 | 0.0897 | 0.0704 | 0.388 | 0.287 | 0.0692 | 0.0695 | 0.044 | 0.304 | 0.163 | 0.0953 | 0.0685 | 0.0658
15 | A-427 | 1 | 0.899 | 0.443 | 0.195 | 0.171 | 0.401 | 0.338 | 0.148 | 0.17 | 0.113 | 0.552 | 0.492 | 0.421 | 0.326 | 0.235 | 0.748 | 0.673 | 0.438 | 0.155 | 0.0739
